Data taken from BigSolDB 2.1.

c1ccc(-c2cc3ccccc3[nH]2)cc1
Conditions | solubility (mole fraction)
in 1,2-dichloroethane, 296.95 K | 0.0186
in 1,2-dichloroethane, 302.45 K | 0.0236
in 1,2-dichloroethane, 308.55 K | 0.0285
in 1,2-dichloroethane, 313.15 K | 0.0325
in 1,2-dichloroethane, 318.25 K | 0.0373
in 1,2-dichloroethane, 323.25 K | 0.0422
in 1,2-dichloroethane, 329.05 K | 0.0498
in 1,2-dichloroethane, 334.05 K | 0.0575
in 1,2-dichloroethane, 338.55 K | 0.0666
in 1,4-dioxane, 289.05 K | 0.0403
in 1,4-dioxane, 293.15 K | 0.0507
in 1,4-dioxane, 299.15 K | 0.0625
in 1,4-dioxane, 303.95 K | 0.0735
in 1,4-dioxane, 308.95 K | 0.0903
in 1,4-dioxane, 313.65 K | 0.114
in 1,4-dioxane, 318.65 K | 0.145
in 1,4-dioxane, 324.05 K | 0.172
in 1,4-dioxane, 329.35 K | 0.201
in 1,4-dioxane, 334.15 K | 0.239
in MTBE, 289.05 K | 0.0337
in MTBE, 293.15 K | 0.0351
in MTBE, 299.15 K | 0.0383
in MTBE, 303.95 K | 0.0406
in MTBE, 308.95 K | 0.0428
in MTBE, 313.65 K | 0.0452
in MTBE, 318.65 K | 0.049
in MTBE, 324.05 K | 0.0522
in MTBE, 329.35 K | 0.0558
in MTBE, 334.15 K | 0.0596
in THF, 289.05 K | 0.187
in THF, 293.15 K | 0.194
in THF, 299.15 K | 0.203
in THF, 303.95 K | 0.211
in THF, 308.95 K | 0.218
in THF, 313.65 K | 0.225
in THF, 318.65 K | 0.232
in THF, 324.05 K | 0.24
in THF, 329.35 K | 0.248
in THF, 334.15 K | 0.256
in acetone, 289.05 K | 0.0951
in acetone, 293.15 K | 0.106
in acetone, 299.15 K | 0.111
in acetone, 303.95 K | 0.122
in acetone, 308.95 K | 0.132
in acetone, 313.65 K | 0.142
in acetone, 318.65 K | 0.15
in acetone, 324.05 K | 0.16
in acetone, 329.35 K | 0.172
in acetonitrile, 289.05 K | 0.0144
in acetonitrile, 293.15 K | 0.0164
in acetonitrile, 299.15 K | 0.02
in acetonitrile, 303.95 K | 0.0237
in acetonitrile, 308.95 K | 0.0283
in acetonitrile, 313.65 K | 0.0328
in acetonitrile, 318.65 K | 0.038
in acetonitrile, 324.05 K | 0.0446
in acetonitrile, 329.35 K | 0.0533
in acetonitrile, 334.15 K | 0.0604
in ethanol, 296.95 K | 0.0109
in ethanol, 302.45 K | 0.012
in ethanol, 308.55 K | 0.014
in ethanol, 313.15 K | 0.0154
in ethanol, 318.25 K | 0.0173
in ethanol, 323.25 K | 0.0187
in ethanol, 329.05 K | 0.0217
in ethanol, 334.05 K | 0.0249
in ethanol, 338.55 K | 0.0274
in ethyl acetate, 289.05 K | 0.0634
in ethyl acetate, 293.15 K | 0.0694
in ethyl acetate, 299.15 K | 0.0761
in ethyl acetate, 303.95 K | 0.0814
in ethyl acetate, 308.95 K | 0.0879
in ethyl acetate, 313.65 K | 0.0951
in ethyl acetate, 318.65 K | 0.101
in ethyl acetate, 324.05 K | 0.11
in ethyl acetate, 329.35 K | 0.119
in ethyl acetate, 334.15 K | 0.128
in isopropanol, 296.95 K | 0.00786
in isopropanol, 302.45 K | 0.00963
in isopropanol, 308.55 K | 0.0115
in isopropanol, 313.15 K | 0.0125
in isopropanol, 318.25 K | 0.0148
in isopropanol, 323.25 K | 0.0168
in isopropanol, 329.05 K | 0.0185
in isopropanol, 334.05 K | 0.0218
in isopropanol, 338.55 K | 0.0233
in methanol, 296.95 K | 0.00571
in methanol, 302.45 K | 0.00709
in methanol, 308.55 K | 0.00835
in methanol, 313.15 K | 0.00941
in methanol, 318.25 K | 0.0107
in methanol, 323.25 K | 0.0119
in methanol, 329.05 K | 0.0136
in methanol, 334.05 K | 0.016
in methanol, 338.55 K | 0.017
in n-butanol, 296.95 K | 0.0123
in n-butanol, 302.45 K | 0.0141
in n-butanol, 308.55 K | 0.0163
in n-butanol, 313.15 K | 0.0181
in n-butanol, 318.25 K | 0.0212
in n-butanol, 323.25 K | 0.0241
in n-butanol, 329.05 K | 0.0276
in n-butanol, 334.05 K | 0.0311
in n-butanol, 338.55 K | 0.0357
in n-propanol, 296.95 K | 0.0104
in n-propanol, 302.45 K | 0.012
in n-propanol, 308.55 K | 0.0134
in n-propanol, 313.15 K | 0.0156
in n-propanol, 318.25 K | 0.0177
in n-propanol, 323.25 K | 0.0206
in n-propanol, 329.05 K | 0.0233
in n-propanol, 334.05 K | 0.0269
in n-propanol, 338.55 K | 0.03
in sec-butanol, 296.95 K | 0.00879
in sec-butanol, 302.45 K | 0.0111
in sec-butanol, 308.55 K | 0.014
in sec-butanol, 313.15 K | 0.0157
in sec-butanol, 318.25 K | 0.0182
in sec-butanol, 323.25 K | 0.022
in sec-butanol, 329.05 K | 0.0271
in sec-butanol, 334.05 K | 0.0307
in sec-butanol, 338.55 K | 0.0353
in toluene, 289.05 K | 0.00911
in toluene, 293.15 K | 0.0101
in toluene, 299.15 K | 0.0122
in toluene, 303.95 K | 0.0141
in toluene, 308.95 K | 0.0167
in toluene, 313.65 K | 0.0191
in toluene, 318.65 K | 0.0222
in toluene, 324.05 K | 0.0255
in toluene, 329.35 K | 0.0298
in toluene, 334.15 K | 0.0342
